Test results published in US9593123B2, “Triazolo[4,5-D]pyrimidine derivatives” (Hoffmann-La Roche Inc., priority 2013, dated 2017).

Columns and labels:
human CB1 receptor = human CB1 receptor (Homo sapiens (Human), UniProt P21554); assay: cAMP assay, CHO cells expressing human CB1 receptors; format: cell-based; details: functional cAMP assay, read-out: CB1 hcAMP EC50
Outline: (§1)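 Compound exposure lasted 30 min at 30 °C in IBMX (1 mM)-containing Krebs Ringer bicarbonate buffer, applied to human CB1- or CB2-expressing CHO cells. Lysates were read by time-resolved FRET cAMP detection, converted via cAMP standard curve (10 μM–0.13 nM), and EC50 values calculated.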

human CB2 receptor = human CB2 receptor (Homo sapiens (Human), UniProt P34972); assay: cAMP assay, CHO cells expressing human CB2 receptors; format: cell-based; details: functional cAMP assay, read-out: CB2 hcAMP EC50
Outline: as §1

Chain of human CB1 receptor (P21554 whole entry): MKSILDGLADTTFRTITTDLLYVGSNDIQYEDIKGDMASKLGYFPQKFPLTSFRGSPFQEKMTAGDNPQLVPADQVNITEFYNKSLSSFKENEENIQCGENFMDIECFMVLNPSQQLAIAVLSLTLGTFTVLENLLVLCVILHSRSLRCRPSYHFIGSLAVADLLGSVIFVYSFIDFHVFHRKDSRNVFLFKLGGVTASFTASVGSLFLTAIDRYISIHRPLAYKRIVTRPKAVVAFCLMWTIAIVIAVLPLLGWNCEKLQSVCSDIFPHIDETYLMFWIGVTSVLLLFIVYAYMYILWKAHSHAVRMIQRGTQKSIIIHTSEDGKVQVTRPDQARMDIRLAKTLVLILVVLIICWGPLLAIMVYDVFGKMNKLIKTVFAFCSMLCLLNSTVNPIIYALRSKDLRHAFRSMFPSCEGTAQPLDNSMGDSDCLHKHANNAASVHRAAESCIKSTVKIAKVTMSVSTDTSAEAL
Chain of human CB2 receptor (P34972 whole entry): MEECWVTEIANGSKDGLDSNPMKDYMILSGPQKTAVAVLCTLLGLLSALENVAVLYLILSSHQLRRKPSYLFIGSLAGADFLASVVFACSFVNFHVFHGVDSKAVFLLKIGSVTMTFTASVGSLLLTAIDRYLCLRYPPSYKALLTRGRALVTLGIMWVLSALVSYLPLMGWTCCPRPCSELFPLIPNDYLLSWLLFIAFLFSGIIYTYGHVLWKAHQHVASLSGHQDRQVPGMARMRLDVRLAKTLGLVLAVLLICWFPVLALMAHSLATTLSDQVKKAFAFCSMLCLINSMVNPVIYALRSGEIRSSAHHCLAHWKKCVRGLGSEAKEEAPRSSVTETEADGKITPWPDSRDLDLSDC

| SMILES | EC50 (human CB1 receptor) [nM] | EC50 (human CB2 receptor) [nM] |
| --- | --- | --- |
| CC(=O)N[C@H]1CCN(c2nc(O[C@@H](C)C(F)(F)F)nc3c2nnn3Cc2ccccc2Cl)C1 [Example 80, N-[(3S)-1-[3-[(2-Chlorophenyl)methyl]-5-[(2S)-1,1,1-trifluoropropan-2-yl]oxytriazolo [4,5-d]pyrimidin-7-yl]pyrrolidin-3-yl]acetamide] | > 10000 | 159 |
| FC(F)(F)COc1nc(N2CCC(F)(F)C2)c2nnn(Cc3ccccc3Cl)c2n1 [Example 40, 3-[(2-Chlorophenyl)methyl]-7-(3,3-difluoropyrrolidin-1-yl)-5-(2,2,2-trifluoroethoxy) triazolo[4,5-d]pyrimidine] | > 10000 | 6.1 |
| CC1(Nc2nc(N3CCC(F)(F)C3)c3nnn(Cc4ccccc4Cl)c3n2)COC1 [Example 13, 3-[(2-Chlorophenyl)methyl]-7-(3,3-difluoropyrrolidin-1-yl)-N-(3-methyloxetan-3-yl)triazolo[4,5-d]pyrimidin-5-amine] | > 10000 | 12.5 |
| CC(C)COc1nc(N2CCC(F)(F)C2)c2nnn(Cc3ccccc3Cl)c2n1 [Example 54, 3-[(2-Chlorophenyl)methyl]-7-(3,3-difluoropyrrolidin-1-yl)-5-(2-methylpropoxy) triazolo[4,5-d]pyrimidine] | > 10000 | 1.2 |
| COc1ccc(Cn2nnc3c(N4CC[C@](C)(O)C4)nc(NC(C)(C)C)nc32)cc1 [Example 30, (3S)-1-[5-(tert-Butylamino)-3-[(4-methoxyphenyl)methyl]triazolo[4,5-d]pyrimidin-7-yl]-3-methylpyrrolidin-3-ol] | > 10000 | 89.9 |
| FC1(F)CCN(c2nc(NC3COC3)nc3c2nnn3Cc2ccccc2Cl)C1 [Example 17, 3-[(2-Chlorophenyl)methyl]-7-(3,3-difluoropyrrolidin-1-yl)-N-(oxetan-3-yl)triazolo [4,5-d]pyrimidin-5-amine] | > 10000 | 26.6 |
| C[C@@]1(O)CCN(c2nc(N3CCOCC3)nc3c2nnn3Cc2ccccc2S(C)(=O)=O)C1 [Example 38, (3R)-3-Methyl-1-[3-[(2-methylsulfonylphenyl)methyl]-5-morpholin-4-yltriazolo[4,5-d]pyrimidin-7-yl]pyrrolidin-3-ol] | > 10000 | 312 |
| CC(C)Oc1nc(N2CC[C@H](O)C2)c2nnn(Cc3ccccc3S(C)(=O)=O)c2n1 [Example 63, (3S)-1-[3-[(2-Methylsulfonylphenyl)methyl]-5-propan-2-yloxytriazolo[4,5-d]pyrimidin-7-yl]pyrrolidin-3-ol] | > 10000 | 190 |
| CC(=O)N[C@H]1CCN(c2nc(NC(C)(C)C)nc3c2nnn3Cc2ncccc2Cl)C1 [Example 27, N-[(3S)-1-[5-(tert-Butylamino)-3-[(3-chloropyridin-2-yl)methyl]triazolo[4,5-d]pyrimidin-7-yl]pyrrolidin-3-yl]acetamide] | > 10000 | 267 |
| COc1ccc(Cn2nnc3c(N4CCC(F)(F)C4)nc(NC(C)(C)C)nc32)cc1 [Example 20, N-tert-Butyl-7-(3,3-difluoropyrrolidin-1-yl)-3-[(4-methoxyphenyl)methyl]triazolo [4,5-d]pyrimidin-5-amine] | > 10000 | 20.3 |
| FC1(F)CCN(c2nc(OCC3CC3)nc3c2nnn3Cc2ccccc2Cl)C1 [Example 47, 3-[(2-Chlorophenyl)methyl]-5-(cyclopropylmethoxy)-7-(3,3-difluoropyrrolidin-1-yl)triazolo[4,5-d]pyrimidine] | > 10000 | 3.6 |
| C[C@H](Oc1nc(N2CCC(F)(F)C2)c2nnn(Cc3nnnn3C)c2n1)C(F)(F)F [Example 73, 7-(3,3-Difluoropyrrolidin-1-yl)-3-[(1-methyltetrazol-5-yl)methyl]-5-[(2S)-1,1,1-trifluoropropan-2-yl]oxytriazolo[4,5-d]pyrimidine] | > 10000 | 42.3 |
| CC(F)(F)COc1nc(N2CCC(F)(F)C2)c2nnn(Cc3ccccc3Cl)c2n1 [Example 53, 3-[(2-Chlorophenyl)methyl]-5-(2,2-difluoropropoxy)-7-(3,3-difluoropyrrolidin-1-yl)triazolo[4,5-d]pyrimidine] | > 10000 | 5.5 |
| CC1(COc2nc(N3CCC(F)(F)C3)c3nnn(Cc4ccccc4Cl)c3n2)COC1 [Example 50, 3-[(2-Chlorophenyl)methyl]-7-(3,3-difluoropyrrolidin-1-yl)-5-[(3-methyloxetan-3-yl)methoxy]triazolo[4,5-d]pyrimidine] | > 10000 | 2.8 |
| CC(C)(C)Nc1nc(N2CCC(F)(F)C2)c2nnn(Cc3ccccc3C(F)(F)F)c2n1 [Example 22, N-tert-Butyl-7-(3,3-difluoropyrrolidin-1-yl)-3-[[2-(trifluoromethyl)phenyl]methyl]triazolo[4,5-d]pyrimidin-5-amine] | > 10000 | 2.1 |
| CN(c1nc(N2CCC(F)(F)C2)c2nnn(Cc3ccccc3Cl)c2n1)C(C)(C)C [Example 15, N-tert-Butyl-3-[(2-chlorophenyl)methyl]-7-(3,3-difluoropyrrolidin-1-yl)-N-methyltriazolo[4,5-d]pyrimidin-5-amine] | 336 | 2.2 |
| Cc1noc(Cn2nnc3c(N4CC[C@](C)(O)C4)nc(N4CCOCC4)nc32)n1 [Example 35, (3S)-3-Methyl-1-[3-[(3-methyl-1,2,4-oxadiazol-5-yl)methyl]-5-morpholin-4-yltriazolo[4,5-d]pyrimidin-7-yl]pyrrolidin-3-ol] | > 10000 | 10.8 |
| FC1(F)CCN(c2nc(N3CCC3)nc3c2nnn3Cc2ccccc2Cl)C1 [Example 9, 5-(Azetidin-1-yl)-3-[(2-chlorophenyl)methyl]-7-(3,3-difluoropyrrolidin-1-yl)triazolo [4,5-d]pyrimidine] | 363 | 1.6 |
